Where two headings read alike, the source gives them in different places.
Columns and labels:
[1] = test system: cervical carcinoma cell lines; assay: Cell based assay, cell viability (CellTiter-Glo), cervical carcinoma cell lines; conditions: Homo sapiens; HeLa cells
liver cancer cell lines = assay: Cell based assay, cell viability (CellTiter-Glo), liver cancer cell lines; conditions: Homo sapiens, SK-HEP1; SK-HEP-1 cell line
Outline: (§1)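 Seed cells after trypsin-EDTA treatment, hold 24 h at constant temperature, then add compound to a final 0 to 2 μM. Culture 72 h more and measure viability via ATP detection.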

[2] = test system: prostate cancer cell lines (e.g. DU145/TXR); assay: Cell based assay, cell viability (CellTiter-Glo), prostate cancer cell lines; conditions: Homo sapiens, 72 hours treatment, final concentration 0 to 2 μM
Outline: as §1

brain cancer cell lines = assay: Cell based assay, cell viability (CellTiter-Glo), brain cancer cell lines; conditions: Homo sapiens
[3] = test system: RT4: human urinary bladder transitional cell papilloma; assay: Cell based assay, cytotoxicity in RT4 papilloma cells (selectivity); conditions: Homo sapiens, RT-4; RT4 cells
[4] = CWR22 cells, read-out: IC50, prostate cancer cell line CWR22
[5] = DU-145, DU145/TXR cells, read-out: IC50, prostate cancer cell line DU145/TXR
[6] = DU-145, DU145 cells, read-out: IC50, prostate cancer cell line DU145
[7] = LNcap cells, read-out: IC50, prostate cancer cell line LNcap
[8] = U138-MG, U-138 MG cell line, read-out: IC50, Brain cancer cell line U-138 MG
[9] = T98G cell line, read-out: IC50, Brain cancer cell line T98G
[10] = U-251 MG cell line, read-out: IC50, Brain cancer cell line U-251 MG
[11] = PC-3 cells, read-out: IC50, prostate cancer cell line PC-3

Row | SMILES | IC50 [1] [µM] | IC50 (liver cancer cell lines) [µM] | IC50 [2, 4] [µM] | IC50 [2, 5] [µM] | IC50 [2, 6] [µM] | IC50 [2, 7] [µM] | IC50 (brain cancer cell lines; [8]) [µM] | IC50 (brain cancer cell lines; [9]) [µM] | IC50 (brain cancer cell lines; [10]) [µM] | IC50 [2, 11] [µM] | IC50 [3] [µM]
1 | CC(=O)c1c([S+]([O-])C(C)c2ccccc2)[nH]c2c(Br)ccc(Cl)c2c1=O (stereo not drawn) [Compound 26, 3-acetyl-8-bromo-5-chloro-2-((1-phenylethyl)sulfinyl)quinolin-4(1H)-one] | > 10 | > 2 | > 2 | > 2 | > 2 | > 2 | > 2 | > 2 | > 2 | – | > 10
2 | CC(=O)c1c([S+]([O-])CN2C(=O)c3ccccc3C2=O)[nH]c2c(Cl)ccc(Cl)c2c1=O (stereo not drawn) [Compound 90, 2-(((3-acetyl-5,8-dichloro-4-oxo-1,4-dihydroquinolin-2-yl)sulfinyl)methyl)isoindoline-1,3-dione] | > 10 | > 2 | > 2 | > 2 | > 2 | > 2 | > 10 | > 10 | > 2 | > 2 | > 10
3 | CC(=O)c1c(SCc2cccc(F)c2)[nH]c2c(Br)ccc(Cl)c2c1=O [Compound 49, 3-acetyl-8-bromo-5-chloro-2-((3-fluorobenzyl)thio)quinolin-4(1H)-one] | > 10 | > 2 | > 2 | > 2 | > 2 | > 2 | > 10 | > 10 | > 2 | > 2 | > 10
4 | CSc1c(C(C)=O)c(=O)c2c(Cl)ccc(Br)c2n1S(C)(=O)=O [Compound 35, 3-acetyl-8-bromo-5-chloro-1-(methylsulfonyl)-2-(methylthio)quinolin-4(1H)-one] | > 10 | > 2 | > 2 | > 2 | > 2 | > 2 | > 10 | > 10 | > 2 | > 2 | > 10
5 | CC(=O)c1c(S)[nH]c2c(Br)ccc(Cl)c2c1=O [Compound 62, 3-acetyl-8-bromo-5-chloro-2-mercaptoquinolin-4(1H)-one] | > 10 | > 2 | > 2 | > 2 | > 2 | > 2 | > 10 | > 10 | > 2 | > 2 | > 10
6 | CC(=O)c1c(SCc2cc(Cl)ccc2Cl)[nH]c2c(Br)ccc(Cl)c2c1=O [Compound 43, 3-acetyl-8-bromo-5-chloro-2-((2,5-dichlorobenzyl)thio)quinolin-4(1H)-one] | > 10 | > 2 | > 2 | > 2 | > 2 | > 2 | > 10 | > 10 | > 2 | > 2 | > 10
7 | CC(=O)c1c([S+]([O-])Cc2nonc2C)[nH]c2c(Br)ccc(Cl)c2c1=O (stereo not drawn) [Compound 106, 3-acetyl-8-bromo-5-chloro-2-(((4-methyl-1,2,5-oxadiazol-3-yl)methyl)sulfinyl)quinolin-4(1H)-one] | > 2 | > 2 | > 2 | > 2 | > 2 | > 2 | > 10 | > 10 | > 2 | – | > 10
8 | CC(=O)c1c([S+]([O-])c2ccc(Br)cc2)[nH]c2c(Br)ccc(Cl)c2c1=O (stereo not drawn) [Compound 17, 3-acetyl-8-bromo-2-((4-bromophenyl)sulfinyl)-5-chloroquinolin-4(1H)-one] | > 10 | > 2 | > 2 | > 2 | > 2 | > 2 | > 10 | > 10 | > 2 | – | > 10
9 | CSc1[nH]c2c(Br)ccc(Cl)c2c(=O)c1C(C)=O [Compound 2, 3-acetyl-8-bromo-5-chloro-2-(methylthio)quinolin-4(1H)-one] | > 10 | > 2 | > 2 | > 2 | > 2 | > 2 | > 10 | > 10 | > 2 | > 2 | > 10
10 | CSc1c(C(C)=O)c(=O)c2c(Cl)ccc(Br)c2n1C [Compound 5, 3-acetyl-8-bromo-5-chloro-1-methyl-2-(methylthio)quinolin-4(1H)-one] | > 10 | > 2 | > 2 | > 2 | > 2 | > 2 | > 10 | > 10 | > 2 | > 2 | > 10

Continued, in another order:

Row | IC50 [1] [µM] | IC50 (liver cancer cell lines) [µM] | IC50 [2, 4] [µM] | IC50 [2, 5] [µM] | IC50 [2, 6] [µM] | IC50 [2, 7] [µM] | IC50 (brain cancer cell lines; [8]) [µM] | IC50 (brain cancer cell lines; [9]) [µM] | IC50 (brain cancer cell lines; [10]) [µM] | IC50 [2, 11] [µM] | SMILES | IC50 [3] [µM]
11 | > 10 | > 2 | > 2 | > 2 | > 2 | > 2 | > 10 | > 10 | > 2 | – | CC(=O)c1c([S+]([O-])c2ccccc2)[nH]c2c(Br)ccc(Cl)c2c1=O (stereo not drawn) [Compound 13, 3-acetyl-8-bromo-5-chloro-2-(phenylsulfinyl)quinolin-4(1H)-one] | > 10
12 | > 10 | > 2 | > 2 | > 2 | > 2 | > 2 | > 10 | > 10 | > 2 | – | CC(C)C(=O)c1c([S+]([O-])Cc2ccc(SC(F)(F)F)cc2)[nH]c2c(F)ccc(F)c2c1=O (stereo not drawn) [Compound 85, 5,8-difluoro-3-isobutyryl-2-((4-((trifluoromethyl)thio)benzyl)sulfinyl)quinolin-4(1H)-one] | > 10
13 | > 10 | > 2 | > 2 | > 2 | > 2 | > 2 | > 10 | > 10 | > 2 | > 2 | COc1ccccc1Sc1[nH]c2c(Br)ccc(Cl)c2c(=O)c1C(C)=O [Compound 14, 3-acetyl-8-bromo-5-chloro-2-((2-methoxyphenyl)thio)quinolin-4(1H)-one] | > 10
14 | > 2 | 1.06 | 1.24 | 1.06 | 0.97 | > 2 | 1.16 | > 10 | 0.79 | 1.51 | CC(=O)c1c([S+]([O-])Cc2ccc(-n3cccn3)nc2)[nH]c2c(Br)ccc(Cl)c2c1=O (stereo not drawn) [Compound 99, 2-(((6-(1H-pyrazol-1-yl)pyridin-3-yl)methyl)sulfinyl)-3-acetyl-8-bromo-5-chloroquinolin-4(1H)-one] | > 10
15 | > 10 | > 2 | > 2 | 1.81 | > 2 | > 2 | > 2 | > 10 | > 2 | > 2 | CC(=O)c1c([S+]([O-])Cc2ccc(Cl)cc2)[nH]c2c(Br)ccc(Cl)c2c1=O (stereo not drawn) [Compound 11, 3-acetyl-8-bromo-5-chloro-2-((4-chlorobenzyl)sulfinyl)quinolin-4(1H)-one] | > 10
16 | > 10 | > 2 | > 2 | > 2 | > 2 | > 2 | > 10 | > 10 | > 2 | – | CC(=O)c1c([S+]([O-])Cc2ccc(SC(F)(F)F)cc2)[nH]c2c(Cl)ccc(Cl)c2c1=O (stereo not drawn) [Compound 79, 3-acetyl-5,8-dichloro-2-((4-((trifluoromethyl)thio)benzyl)sulfinyl)quinolin-4(1H)-one] | > 10
17 | > 2 | 1.5 | 1.55 | 1.23 | 1.64 | > 2 | 1.47 | > 10 | > 2 | > 2 | CC(=O)c1c([S+]([O-])Cc2ccc(Cl)nc2)[nH]c2c(Br)ccc(Cl)c2c1=O (stereo not drawn) [Compound 104, 3-acetyl-8-bromo-5-chloro-2-(((6-chloropyridin-3-yl)methyl)sulfinyl)quinolin-4(1H)-one] | > 10
18 | > 10 | > 2 | > 2 | > 2 | > 2 | > 2 | > 10 | > 10 | > 2 | – | COc1cccc2[nH]c([S+]([O-])Cc3ccc(S(F)(F)(F)(F)F)cc3)c(C(C)=O)c(=O)c12 (stereo not drawn) [Compound 93, 3-acetyl-5-methoxy-2-((4-(pentafluoro--sulfanyl)benzyl)sulfinyl)quinolin-4(1H)-one] | > 10
19 | > 10 | 0.78 | 1.2 | 1.21 | 1.23 | 1.44 | 1.46 | > 10 | 0.84 | 1.3 | CC(=O)c1c([S+]([O-])Cc2ccccc2C#N)[nH]c2c(Br)ccc(Cl)c2c1=O (stereo not drawn) [Compound 58, 2-(((3-acetyl-8-bromo-5-chloro-4-oxo-1,4-dihydroquinolin-2-yl)sulfinyl)methyl)benzonitrile] | > 10
20 | > 2 | 0.86 | 1.62 | 0.94 | 0.83 | > 2 | 1.14 | > 2 | 0.93 | 1.24 | CC(=O)c1c([S+]([O-])Cc2ccc(S(F)(F)(F)(F)F)cc2)[nH]c2c(Br)ccc(Cl)c2c1=O (stereo not drawn) [Compound 68, 3-acetyl-8-bromo-5-chloro-2-((4-(pentafluoro-16-sulfanyl)benzyl)sulfinyl)quinolin-4(1H)-one] | > 10

— patent US11464770B2, “Anticancer pharmaceutical composition” (NATIONAL CANCER CENTER, priority 2016, dated 2022)
